Source: patent publication US20240132484A1, “BROAD SPECTRUM ANTIVIRAL COMPOUNDS TARGETING THE SKI COMPLEX” (priority 2020, published 2024)
“And” between values parts separate entries of the source, which are not always exact repeats. Equal values may be shown once. Read-outs that look alike come from different tables or passages of the source.

Assays:
Influenza virus = assay: organism not typed; format: cell-based, influenza A virus; conditions: for Avg PFU/ml: average of first and second experiment; for Influenza virus titer, 10 μM / Influenza virus titer, 50 μM: upper part of table (FIG. 5 data); for Influenza virus titer, 10 μM / Influenza virus titer, 50 μM / Flu titer (pfu/ml): plaque assay; for Flu titer (pfu/ml): A549 cells
cells (nuclei count) = conditions: for Toxicity Data, Average, Mean: average of Exp 1-3 (SMW475, SMW477, SMW478)
SARS2 = format: cell-based, SARS-CoV-2; conditions: for Infection Data, Average, Mean: average of Exp 1-3 (SMW475, SMW477, SMW478)

COc1ccc(CNCC(F)(F)F)c(OCC(O)CN2CCN(C)CC2)c1 (stereo not drawn) [Compound 18-12]
first experiment (Influenza virus; 10 μM screen): 30000 PFU/ml
second experiment (Influenza virus; 10 μM screen): 28000 PFU/ml
Avg PFU/ml (Influenza virus; 10 μM screen): 29000 PFU/ml
Influenza virus titer, 10 μM (Influenza virus): 30000 PFU/virus/ml
first experiment PFU/ml (Influenza virus; 50 μM screen): 90000 PFU/ml
second experiment PFU/ml (Influenza virus; 50 μM screen): 26000 PFU/ml
Avg PFU/ml (Influenza virus; 50 μM screen): 58000 PFU/ml
Influenza virus titer, 50 μM (Influenza virus): 90000 PFU/virus/ml

COc1ccc(CNC2Cc3ccccc3C2)c(OCC(O)CN2CCN(C)CC2)c1 (stereo not drawn) [Compound 18-3]
first experiment (Influenza virus; 10 μM screen): 12000 PFU/ml
second experiment (Influenza virus; 10 μM screen): 1000 PFU/ml
Avg PFU/ml (Influenza virus; 10 μM screen): 6500 PFU/ml
Influenza virus titer, 10 μM (Influenza virus): 12000 PFU/virus/ml
first experiment PFU/ml (Influenza virus; 50 μM screen): 1100 PFU/ml
second experiment PFU/ml (Influenza virus; 50 μM screen): 1700 PFU/ml
Avg PFU/ml (Influenza virus; 50 μM screen): 1400 PFU/ml
Influenza virus titer, 50 μM (Influenza virus): 1100 PFU/virus/ml

COc1ccc(CNCCCSC)c(OCC(O)CN2CCCCCCC2)c1 (stereo not drawn) [Compound 18-14]
first experiment (Influenza virus; 10 μM screen): 44000 PFU/ml
second experiment (Influenza virus; 10 μM screen): 12000 PFU/ml
Avg PFU/ml (Influenza virus; 10 μM screen): 28000 PFU/ml
Influenza virus titer, 10 μM (Influenza virus): 4400 PFU/virus/ml
first experiment PFU/ml (Influenza virus; 50 μM screen): 80000 PFU/ml
second experiment PFU/ml (Influenza virus; 50 μM screen): 1100 PFU/ml
Avg PFU/ml (Influenza virus; 50 μM screen): 40550 PFU/ml
Influenza virus titer, 50 μM (Influenza virus): 80000 PFU/virus/ml

COc1ccc(CNC2CCCCCCC2)c(OCC(O)CN2CCN(C)CC2)c1 (stereo not drawn) [Compound 18-8]
first experiment (Influenza virus; 10 μM screen): 3000 PFU/ml
second experiment (Influenza virus; 10 μM screen): 700 PFU/ml
Avg PFU/ml (Influenza virus; 10 μM screen): 1850 PFU/ml
Influenza virus titer, 10 μM (Influenza virus): 3000 PFU/virus/ml
first experiment PFU/ml (Influenza virus; 50 μM screen): 3800 PFU/ml
second experiment PFU/ml (Influenza virus; 50 μM screen): 200 PFU/ml
Avg PFU/ml (Influenza virus; 50 μM screen): 2000 PFU/ml
Influenza virus titer, 50 μM (Influenza virus): 38000 PFU/virus/ml

CCN1CCN(CC(O)COc2cccc(CN(C)Cc3ccccn3)c2)CC1 (stereo not drawn) [Compound 10306628, 1-(4-ethyl-1-piperazinyl)-3-(3-{[methyl(2-pyridinylmethyl)amino]methyl}phenoxy)-2-propanol]
Flu titer (pfu/ml) (Influenza virus; 1 μM compound): 70000 pfu/ml
Flu titer (pfu/ml) (Influenza virus; 10 μM compound): 85000 pfu/ml
Flu titer (pfu/ml) (Influenza virus; 50 μM compound): 42000 pfu/ml

CCc1ccc(OC(C)c2nnc(SCC(=O)Nc3nc(-c4ccccc4)c(C)s3)n2C)cc1 (stereo not drawn) [Compound 7493781, 2-({5-[1-(4-ethylphenoxy)ethyl]-4-methyl-4H-1,2,4-triazol-3-yl}thio)-N-(5-methyl-4-phenyl-1,3-thiazol-2-yl)acetamide]
Flu titer (pfu/ml) (Influenza virus; 1 μM compound): 75000 pfu/ml
Flu titer (pfu/ml) (Influenza virus; 10 μM compound): 98000 pfu/ml
Flu titer (pfu/ml) (Influenza virus; 50 μM compound): 53000 pfu/ml

COc1cc(CNCCC2CCN(C)CC2)ccc1OCC(O)CN(C)C1CCCCC1 (stereo not drawn) [Compound 28236358, 1-[cyclohexyl(methyl)amino]-3-[2-methoxy-4-({[2-(1-methyl-4-piperidinyl)ethyl]amino}methyl)phenoxy]-2-propanol]
Flu titer (pfu/ml) (Influenza virus; 1 μM compound): 70000 pfu/ml
Flu titer (pfu/ml) (Influenza virus; 10 μM compound): 70000 pfu/ml
Flu titer (pfu/ml) (Influenza virus; 50 μM compound): 39000 pfu/ml

CN(CC(O)COc1ccccc1CNCCN1CCCC1)C1CCCCC1 (stereo not drawn) [Compound 74597070, 1-[cyclohexyl(methyl)amino]-3-[2-({[2-(1-pyrrolidinyl)ethyl]amino}methyl)phenoxy]-2-propanol]
Flu titer (pfu/ml) (Influenza virus; 1 μM compound): 70000 pfu/ml
Flu titer (pfu/ml) (Influenza virus; 10 μM compound): 55000 pfu/ml
Flu titer (pfu/ml) (Influenza virus; 50 μM compound): 24000 pfu/ml

CC#CC(=O)NCc1nc(-c2ccccc2NC(=O)CCOc2ccccc2)oc1C [Compound 17295424, N-[(5-methyl-2-{2-[(3-phenoxypropanoyl)amino]phenyl}-1,3-oxazol-4-yl)methyl]-2-butynamide]
Flu titer (pfu/ml) (Influenza virus; 1 μM compound): 44000 pfu/ml
Flu titer (pfu/ml) (Influenza virus; 10 μM compound): 68000 pfu/ml
Flu titer (pfu/ml) (Influenza virus; 50 μM compound): 64000 pfu/ml

O=C(CCCc1ccccc1)Nc1cccc(N2CCC(NCCCn3nnc4ccccc43)CC2)c1 [Compound 84256405, N-[3-(4-{[3-(1H-1,2,3-benzotriazol-1-yl)propyl]amino}-1-piperidinyl)phenyl]-4-phenylbutanamide]
Flu titer (pfu/ml) (Influenza virus; 1 μM compound): 50000 pfu/ml
Flu titer (pfu/ml) (Influenza virus; 10 μM compound): 140000 pfu/ml
Flu titer (pfu/ml) (Influenza virus; 50 μM compound): 210000 pfu/ml

COc1ccc(CNCCCn2ccnc2C)c(OCC(O)CN2CCN(C)CC2)c1 (stereo not drawn) [Compound 18-7]
first experiment (Influenza virus; 10 μM screen): 240000 PFU/ml
second experiment (Influenza virus; 10 μM screen): 44000 PFU/ml
Avg PFU/ml (Influenza virus; 10 μM screen): 142000 PFU/ml
Influenza virus titer, 10 μM (Influenza virus): 240000 PFU/virus/ml
first experiment PFU/ml (Influenza virus; 50 μM screen): 110000 PFU/ml
second experiment PFU/ml (Influenza virus; 50 μM screen): 31000 PFU/ml
Avg PFU/ml (Influenza virus; 50 μM screen): 70500 PFU/ml
Influenza virus titer, 50 μM (Influenza virus): 110000 PFU/virus/ml

COc1ccc(CNCCc2ccccc2C)c(OCC(O)CN2CCN(C)CC2)c1 (stereo not drawn) [Compound 18-2]
first experiment (Influenza virus; 10 μM screen): 500 PFU/ml
second experiment (Influenza virus; 10 μM screen): 1900 PFU/ml
Avg PFU/ml (Influenza virus; 10 μM screen): 1200 PFU/ml
Influenza virus titer, 10 μM (Influenza virus): 500 PFU/virus/ml
first experiment PFU/ml (Influenza virus; 50 μM screen): 1700 PFU/ml
second experiment PFU/ml (Influenza virus; 50 μM screen): 100 PFU/ml
Avg PFU/ml (Influenza virus; 50 μM screen): 900 PFU/ml
Influenza virus titer, 50 μM (Influenza virus): 1700 PFU/virus/ml

COC(=O)c1csc(CN(CCN(C)C)Cc2cccs2)c1 [SILCS29]
Relative cell count to DMSO controls, Average 1 μM (cells (nuclei count); 1 μM, toxicity data, 100=DMSO control): 104.12
Relative cell count to DMSO controls, Average 5 μM (cells (nuclei count); 5 μM, toxicity data, 100=DMSO control): 110.81
Relative cell count to DMSO controls, Average 10 μM (cells (nuclei count); 10 μM, toxicity data, 100=DMSO control): 90.99
Relative cell count to DMSO controls, Average 25 μM (cells (nuclei count); 25 μM, toxicity data, 100=DMSO control): 101.15
Relative cell count to DMSO controls, Average 50 μM (cells (nuclei count); 50 μM, toxicity data, 100=DMSO control): 67.81
Toxicity Data, Average, Mean (cells (nuclei count); n 9, 1 uM): 104.12%
Toxicity Data, Average, Mean (cells (nuclei count); n 9, 5 uM): 110.81%
Toxicity Data, Average, Mean (cells (nuclei count); n 9, 10 uM): 90.99%
Toxicity Data, Average, Mean (cells (nuclei count); n 9, 25 uM): 101.15%
Toxicity Data, Average, Mean (cells (nuclei count); n 9, 50 uM): 67.81%
Relative cell count to DMSO controls, Average (for correlation analysis) (cells (nuclei count); average value over the 5 tested concentrations (1 to 50 uM)): 94.98
Percentage Infection Relative to Appropriate DMSO Control with Avg Background Subtraction (SARS2; Exp 1 (SMW475), 5 uM, single well): 1.25% and −0.49% and 2.25%
Percentage Infection Relative to Appropriate DMSO Control with Avg Background Subtraction (SARS2; Exp 1 (SMW475), 10 uM, single well): 57.43% and 82.75% and 79.22%
Percentage Infection Relative to Appropriate DMSO Control with Avg Background Subtraction (SARS2; Exp 1 (SMW475), 25 uM, single well): 13.47% and 21.51% and 26.64%
Percentage Infection Relative to Appropriate DMSO Control with Avg Background Subtraction (SARS2; Exp 1 (SMW475), 50 uM, single well): 13.24% and 10.68% and 10.82%
Percentage Infection Relative to Appropriate DMSO Control with Avg Background Subtraction (SARS2; Exp 2 (SMW477), 1 uM, single well): 96.79% and 118.82% and 112.77%
Percentage Infection Relative to Appropriate DMSO Control with Avg Background Subtraction (SARS2; Exp 2 (SMW477), 5 uM, single well): 84.54% and 117.80% and 116.09%
Percentage Infection Relative to Appropriate DMSO Control with Avg Background Subtraction (SARS2; Exp 2 (SMW477), 10 uM, single well): 78.23% and 124.37% and 115.30%
Percentage Infection Relative to Appropriate DMSO Control with Avg Background Subtraction (SARS2; Exp 2 (SMW477), 50 uM, single well): 2.61% and 6.87% and 8.07%
Percentage Infection Relative to Appropriate DMSO Control with Avg Background Subtraction (SARS2; Exp 3 (SMW478), 1 uM, Greiner Celigo plates): 97.82% and 84.39% and 100.08%
Percentage Infection Relative to Appropriate DMSO Control with Avg Background Subtraction (SARS2; Exp 3 (SMW478), 5 uM, Greiner Celigo plates): 95.72% and 88.47% and 77.81%
Percentage Infection Relative to Appropriate DMSO Control with Avg Background Subtraction (SARS2; Exp 3 (SMW478), 10 uM, Greiner Celigo plates): 99.71% and 91.75% and 106.45%
Percentage Infection Relative to Appropriate DMSO Control with Avg Background Subtraction (SARS2; Exp 3 (SMW478), 50 uM, Greiner Celigo plates): 6.88% and −1.19% and −1.09%
Percentage Inhibition Average 1 μM (SARS2; SARS2, 1 μM): 15.78%
Screening data (Relative infection to DMSO controls) Average 1 μM (SARS2; SARS2, 1 μM, 100=DMSO control): 84.22
Percentage Inhibition Average 5 μM (SARS2; SARS2, 5 μM): 35.17%
Screening data (Relative infection to DMSO controls) Average 5 μM (SARS2; SARS2, 5 μM, 100=DMSO control): 64.83
Percentage Inhibition Average 10 μM (SARS2; SARS2, 10 μM): 7.20%
Screening data (Relative infection to DMSO controls) Average 10 μM (SARS2; SARS2, 10 μM, 100=DMSO control): 92.80
Percentage Inhibition Average 25 μM (SARS2; SARS2, 25 μM): 67.28%
Screening data (Relative infection to DMSO controls) Average 25 μM (SARS2; SARS2, 25 μM, 100=DMSO control): 32.72
Percentage Inhibition Average 50 μM (SARS2; SARS2, 50 μM): 93.68%
Screening data (Relative infection to DMSO controls) Average 50 μM (SARS2; SARS2, 50 μM, 100=DMSO control): 6.32
Average (relative infection to DMSO over the 5 tested concentrations) (SARS2; SARS2, average over 1 to 50 uM, 100=DMSO control): 56.18
Infection Data, Average, Mean (SARS2; n 9, 1 uM): 84.22%
Infection Data, Average, Mean (SARS2; n 9, 5 uM): 64.83%
Infection Data, Average, Mean (SARS2; n 9, 10 uM): 92.80%
Infection Data, Average, Mean (SARS2; n 9, 25 uM): 32.72%
Infection Data, Average, Mean (SARS2; n 9, 50 uM): 6.32%
